System: resistant strains of fungi (Candida spp., Microsporium, Trich. mentagrophytes, Aspergillus niger)
Test: Antifungal activity on the resistant strains
Type: cell-based
Conditions: resistant fungal strains

Compound | antifungal activity, in words
C[C@@H]1[C@H](O)[C@@H](C)/C=C/C=C/CC/C=C/C=C/C=C/C=C/C(O[C@H]2O[C@H](C)[C@@H](O)[C@H](N)[C@@H]2O)CC2O[C@](O)(CC(O)C(O)CCC(O)CC(O)CC(O)CC(=O)O[C@H]1C)CC(O)C2C(=O)O (some centres unmarked) [nystatin] | did not exert antifungal activity
C[C@@H]1[C@H](O)[C@@H](C)/C=C/C=C/C=C/C=C/C=C/C=C/C=C/[C@H](O[C@@H]2O[C@H](C)[C@@H](O)[C@H](N)[C@@H]2O)C[C@@H]2O[C@](O)(C[C@@H](O)C[C@@H](O)[C@H](O)CC[C@@H](O)C[C@@H](O)CC(=O)O[C@H]1C)C[C@H](O)[C@H]2C(=O)O [amphotericin] | did not exert antifungal activity
